Measurements reported in US11945792B2, “Crystalline forms of 6-(1-acryloylpiperidin-4-yl)-2-(4-phenoxyphenyl)nicotinamide” (BEIJING INNOCARE PHARMA TECH CO., LTD., priority 2018, dated 2024).
Converted amounts (≈) assume the structure as drawn. “Also recorded” adds a separate entry of the source.

How the values were obtained:
Format in all cases: physicochemical
[1] = Interconversion of crystal forms via heating and slurry competition experiments; settings: for form after slurry competition: slurry in various solvent systems
Description: Relationships among Type A-F crystal forms were investigated via heating and slurry competition experiments.

[2] = Equilibrium solubility in water at room temperature for 24 hours; settings: for Form Change: residual solids by XRPD after 24 hours in water at room temperature; for pH: solubility test in water, 24 hours; for pH / Solubility: room temperature; for Solubility: water, 24 hours equilibrium
Description: 10 mg of Type A, B, D, and F samples each was added into a 1.5-mL glass vial, and 1.0 mL of water was then added. The mixture was rolled at 25 rpm at room temperature for 24 hours. The suspension was centrifuged and filtered to isolate the supernatant for HPLC concentration and purity testing and the residual solids were characterized by XRPD.

[3] = Solid-state stability assessment on storage (XRPD and HPLC purity)
Description: Approximate 10 mg of Type A sample was added into each 1.5-mL glass vial and stored at 80° C. (closed) for 1 day, 25° C./60% RH and 40° C./75% RH (open) for 1 week, then tested by XRPD and HPLC purity. Approximate 4 mg of Type B sample was added into each 1.5-mL glass vial and stored at 80° C. (closed) for 1 day, 25° C./60% RH and 40° C./75% RH (open) for 1 week, then tested by XRPD and HPLC purity. Approximate 4 mg of Type D sample was added into each 1.5-mL glass vial and stored at 25° C./60% RH and 40° C./75% RH (open) for 1 week, then tested by XRPD and HPLC purity. Approximate 7 mg of Type F sample was added into each 1.5-mL glass vial and stored at 80° C. (closed) for 1 day, 25° C./60% RH and 40° C./75% RH (open) for 1 week, then tested by XRPD and HPLC purity.

[4] = Hygroscopicity assessment by dynamic vapor sorption (DVS); settings: for water uptake / hygroscopicity class: 25° C., 80% RH; for hygroscopicity class: Chinese Pharmacopeia 2010 definition; for form change after DVS test: XRPD before and after DVS test
Description: XRPD studies was performed using a Panalytical Empyrean X-ray powder diffractometer. The parameters of the X-ray powder diffraction of the present disclosure are as follows: • X-ray Reflection: Cu, Kα • Kα1 (Å): 1.540598; Kα2 (Å): 1.544426 • Kα2/Kα1 intensity ratio: 0.50 • Voltage: 45 (kV) • Current: 40 (mA) • Scanning range: from 3.0 degree to 40.0 degree • DSC data in the present disclosure were acquired by a TA Q2000. The parameters of the DSC method of the present disclosure were as follows: • Heating rate: 10° C./min • Purge gas: nitrogen • TGA data in the present disclosure are acquired by a TA Q5000. The parameters of the TGA method of the present disclosure were as follow: • Heating rate: 10° C./min • Purge gas: nitrogen • Dynamic vapor sorption (DVS) data in the present disclosure were acquired by a SMS (Surface Measurement Systems) DVS Intrinsic. The parameters of the dynamic vapor sorption (DVS) method of the present disclosure were as follows: • Temperature: 25° C. • Gas and flow rate: nitrogen, 200 mL/min • dm/dt: 0.002%/min • RH range: 0% RH-95% RH Approximate 10 mg of Type B sample in the present disclosure was assessed by hygroscopicity using a dynamic vapor sorption (DVS) instrument, and tested by XRPD before and after DVS test.

[5] = Solid-state stability assessment on storage (XRPD and HPLC purity); settings: 92.5% RH for about 17 days
[6] = 80° C. (closed) 1 day and 25° C./60% RH, 40° C./75% RH (open) 1 week
[7] = ACN, EtOH, MeOH/H2O (1:1, v/v) and H2O from RT to 50/70° C.
[8] = 25° C./60% RH and 40° C./75% RH (open) 1 week

Structure (SMILES)	Form Change [2]	pH [2]	Solubility [2]	Purity/initial purity ([3]; 25° C./60% RH (open)/1 week)	Purity/initial purity ([3]; 40° C./75% RH (open)/1 week)	change in purity after storage [3, 6]	stability of the form after storage [3, 6]	Purity/initial purity ([3]; 80° C. (closed)/1 day)	water uptake ([4]; DVS)	hygroscopicity class ([4]; DVS)	form after slurry [1, 7]	form after slurry competition [1]	form change after DVS test [4]	stability of the form after storage [3, 8]	other results
C=CC(=O)N1CCC(c2ccc(C(N)=O)c(-c3ccc(Oc4ccccc4)cc3)n2)CC1 [Type C, 6-(1-acryloylpiperidin-4-yl)-2-(4-phenoxyphenyl)nicotinamide]	–	–	–	–	–	–	–	–	–	–	–	–	–	–	form after slurry ([1]; H2O at 50° C. for about 21 days): convert to anhydrate Type B
C=CC(=O)N1CCC(c2ccc(C(N)=O)c(-c3ccc(Oc4ccccc4)cc3)n2)CC1 [Type B, 6-(1-acryloylpiperidin-4-yl)-2-(4-phenoxyphenyl)nicotinamide]	No	7.7	6 µg/mL (≈ 14 µM)	99.5%	99.7%	no decrease in purity	did not change; also recorded: stable	99.7%	0.5%	slightly hygroscopic	converted to Type F	converted into anhydrate Type F	did not change; also recorded: no form change	–	–
C=CC(=O)N1CCC(c2ccc(C(N)=O)c(-c3ccc(Oc4ccccc4)cc3)n2)CC1 [Type A, 6-(1-acryloylpiperidin-4-yl)-2-(4-phenoxyphenyl)nicotinamide]	Yes, to Type B	7.4	–	100.0%	100.1%	no decrease in purity	did not change; also recorded: stable	100.0%	–	hygroscopic	converted to Type F	converted into anhydrate Type F	–	relatively good physical and chemical stability	crystallinity after storage [5]: decreased

Continued, in another order:

Form Change [2]	pH [2]	Solubility [2]	Purity/initial purity ([3]; 25° C./60% RH (open)/1 week)	Purity/initial purity ([3]; 40° C./75% RH (open)/1 week)	change in purity after storage [3, 6]	stability of the form after storage [3, 6]	Purity/initial purity ([3]; 80° C. (closed)/1 day)	water uptake ([4]; DVS)	hygroscopicity class ([4]; DVS)	form after slurry [1, 7]	form after slurry competition [1]	Structure (SMILES)	form change after DVS test [4]	stability of the form after storage [3, 8]	other results
No	8.0	18 µg/mL (≈ 42.1 µM)	99.9%	99.9%	–	–	–	–	–	–	converted into anhydrate Type F	C=CC(=O)N1CCC(c2ccc(C(N)=O)c(-c3ccc(Oc4ccccc4)cc3)n2)CC1 [Type D, 6-(1-acryloylpiperidin-4-yl)-2-(4-phenoxyphenyl)nicotinamide]	–	did not change; also recorded: stable	change in purity after storage [3, 8]: no significant decrease in purity; Final form ([3]; 80° C. (closed)/1 day, XRPD): converted to a mixture of Type B and D; also recorded: converted to the mixture of Type B and D; DVS finding ([4]; DVS): relative stable hydrate; form after slurry ([1]; MeOH/H2O (aw~0.5) and EtOH/H2O (aw=0~1) at RT): converted to anhydrate Type F; form after dehydration ([1]; dehydration at elevated temperature): converted to anhydrate Type E
No	6.9	–	100.0%	100.0%	no decrease in purity	did not change; also recorded: stable	100.0%	1.2%	slightly hygroscopic	–	–	C=CC(=O)N1CCC(c2ccc(C(N)=O)c(-c3ccc(Oc4ccccc4)cc3)n2)CC1 [Type F, 6-(1-acryloylpiperidin-4-yl)-2-(4-phenoxyphenyl)nicotinamide]	did not change; also recorded: no form change	relatively good physical and chemical stability	relative thermodynamic stability ([1]; between RT and 50/70° C.): thermodynamically more stable form than Type A/B/D; also recorded: more stable anhydrous form among Type A/B/D/F
